Experimental data reported in patent US20030104507A1, “Method for detection of ATP” (priority 2001, published 2003).

What was measured:
LucPpe2m146 = assay: Stability of reagent composition with LucPpe2m146 and detergent (RT, pH 7.0); format: biochemical, Photuris pennsylvanica
Method in brief: (§1)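 Reagent with 50 μg/ml luciferase, luciferin, MgSO4, buffer and detergent at varying concentrations held at about 23° C; enzyme added just before first read. At timepoints, aliquots mixed 1:1 with media containing ATP and luminescence read immediately (0.5 s/well, triplicate); reaction half-lives and percent of original luminescence derived.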

LucPpy = target: T1, LucPpy (Photinus pyralis, UniProt P08659); assay: Stability of reagent composition with LucPpy and detergent (RT, pH 7.0); format: biochemical; conditions: for Average Relative Light Units / Percent of Luminescence Remaining: LucPpy
T1 construct: purchased Promega E170A
Method in brief: as §1

CCCCCCCCCCCC[N+](C)(C)CCCS(=O)(=O)[O-] [Sulfobetaine 3-10, N-Dodecyl-N,N-dimethyl-3-ammonio-1-propanesulfonate]
Average Relative Light Units (LucPpe2m146; LucPpe2m146, 0.1%, 0.75 min (head r48)): 16648.3 rlu
Percent of Luminescence Remaining (LucPpe2m146; LucPpe2m146, 0.1%, 0.75 min (times of Table I r48)): 100.00%
Average Relative Light Units (LucPpe2m146; LucPpe2m146, 0.1%, 30 min (head r48)): 17003.0 rlu
Percent of Luminescence Remaining (LucPpe2m146; LucPpe2m146, 0.1%, 30 min (times of Table I r48)): 102.1%
Average Relative Light Units (LucPpe2m146; LucPpe2m146, 0.1%, 66 min (head r48)): 17849.8 rlu
Percent of Luminescence Remaining (LucPpe2m146; LucPpe2m146, 0.1%, 66 min (times of Table I r48)): 107.2%
Average Relative Light Units (LucPpe2m146; LucPpe2m146, 0.1%, 123 min (head r48)): 16610.13 rlu
Percent of Luminescence Remaining (LucPpe2m146; LucPpe2m146, 0.1%, 123 min (times of Table I r48)): 99.8%
Average Relative Light Units (LucPpe2m146; LucPpe2m146, 0.1%, 180 min (head r48)): 17115.63 rlu
Percent of Luminescence Remaining (LucPpe2m146; LucPpe2m146, 0.1%, 180 min (times of Table I r48)): 102.8%
Average Relative Light Units (LucPpe2m146; LucPpe2m146, 0.1%, 238 min (head r48)): 18131.37 rlu
Percent of Luminescence Remaining (LucPpe2m146; LucPpe2m146, 0.1%, 238 min (times of Table I r48)): 108.9%
Average Relative Light Units (LucPpe2m146; LucPpe2m146, 0.5%, 0.75 min (head r48)): 13447.0 rlu
Percent of Luminescence Remaining (LucPpe2m146; LucPpe2m146, 0.5%, 0.75 min (times of Table I r48)): 100.00%
Average Relative Light Units (LucPpe2m146; LucPpe2m146, 0.5%, 30 min (head r48)): 13597.97 rlu
Percent of Luminescence Remaining (LucPpe2m146; LucPpe2m146, 0.5%, 30 min (times of Table I r48)): 101.1%
Average Relative Light Units (LucPpe2m146; LucPpe2m146, 0.5%, 66 min (head r48)): 14186.93 rlu
Percent of Luminescence Remaining (LucPpe2m146; LucPpe2m146, 0.5%, 66 min (times of Table I r48)): 105.5%
Average Relative Light Units (LucPpe2m146; LucPpe2m146, 0.5%, 123 min (head r48)): 12982.20 rlu
Percent of Luminescence Remaining (LucPpe2m146; LucPpe2m146, 0.5%, 123 min (times of Table I r48)): 96.5%
Average Relative Light Units (LucPpe2m146; LucPpe2m146, 0.5%, 180 min (head r48)): 14348.90 rlu
Percent of Luminescence Remaining (LucPpe2m146; LucPpe2m146, 0.5%, 180 min (times of Table I r48)): 106.7%
Average Relative Light Units (LucPpe2m146; LucPpe2m146, 0.5%, 238 min (head r48)): 13958.2 rlu
Percent of Luminescence Remaining (LucPpe2m146; LucPpe2m146, 0.5%, 238 min (times of Table I r48)): 103.8%
Average Relative Light Units (LucPpe2m146; LucPpe2m146, 1.0%, 0.75 min (head r48)): 16897.5 rlu
Percent of Luminescence Remaining (LucPpe2m146; LucPpe2m146, 1.0%, 0.75 min (times of Table I r48)): 100.00%
Average Relative Light Units (LucPpe2m146; LucPpe2m146, 1.0%, 30 min (head r48)): 16754.97 rlu
Percent of Luminescence Remaining (LucPpe2m146; LucPpe2m146, 1.0%, 30 min (times of Table I r48)): 102.0%
Average Relative Light Units (LucPpe2m146; LucPpe2m146, 1.0%, 66 min (head r48)): 7036.0 rlu
Percent of Luminescence Remaining (LucPpe2m146; LucPpe2m146, 1.0%, 66 min (times of Table I r48)): 106.0%
Average Relative Light Units (LucPpe2m146; LucPpe2m146, 1.0%, 123 min (head r48)): 6653.67 rlu
Percent of Luminescence Remaining (LucPpe2m146; LucPpe2m146, 1.0%, 123 min (times of Table I r48)): 100.3%
Average Relative Light Units (LucPpe2m146; LucPpe2m146, 1.0%, 180 min (head r48)): 7358.44 rlu
Percent of Luminescence Remaining (LucPpe2m146; LucPpe2m146, 1.0%, 180 min (times of Table I r48)): 110.9%
Average Relative Light Units (LucPpe2m146; LucPpe2m146, 1.0%, 238 min (head r48)): 6948.05 rlu
Percent of Luminescence Remaining (LucPpe2m146; LucPpe2m146, 1.0%, 238 min (times of Table I r48)): 104.7%
Half-life of Luminescence Activity (LucPpy; Common firefly luciferase (P. pyralis), conc. 0.500): no activity
Average Relative Light Units (LucPpy; 0.1%, 0.75 min (head r12)): 3291.41 rlu
Percent of Luminescence Remaining (LucPpy; 0.1%, 0.75 min (times of Table I r12)): 100.00%
Average Relative Light Units (LucPpy; 0.1%, 7.5 min (head r12)): 3178.07 rlu
Percent of Luminescence Remaining (LucPpy; 0.1%, 7.5 min (times of Table I r12)): 95.8%
Average Relative Light Units (LucPpy; 0.1%, 20.5 min (head r12)): 3262.17 rlu
Percent of Luminescence Remaining (LucPpy; 0.1%, 20.5 min (times of Table I r12)): 99.1%
Average Relative Light Units (LucPpy; 0.1%, 59 min (head r12)): 3074.49 rlu
Percent of Luminescence Remaining (LucPpy; 0.1%, 59 min (times of Table I r12)): 93.4%
Average Relative Light Units (LucPpy; 0.1%, 90 min (head r12)): 3066.29 rlu
Percent of Luminescence Remaining (LucPpy; 0.1%, 90 min (times of Table I r12)): 93. %
Average Relative Light Units (LucPpy; 0.5%, 0.75 min (head r12)): 737.788 rlu
Percent of Luminescence Remaining (LucPpy; 0.5%, 0.75 min (times of Table I r12)): 100.00%
Average Relative Light Units (LucPpy; 0.5%, 7.5 min (head r12)): 0.084 rlu
Average Relative Light Units (LucPpy; 0.5%, 20.5 min (head r12)): 0.037 rlu
Average Relative Light Units (LucPpy; 1.0%, 0.75 min (head r12)): 0.024 rlu
Average Relative Light Units (LucPpy; 1.0%, 7.5 min (head r12)): 0.000 rlu
